Here are results for 31 compounds from patent US20240043470A1, “MACROCYCLIC COMPOUNDS AS PROTEASOME INHIBITORS” (CORNELL UNIVERSITY, priority 2017, published 2024).

For one test, the target named is β5c of hu c-20S (Homo sapiens (Human), UniProt P20618+P28074). In words: IC50 determination against β5c of human constitutive proteasome (suc-LLVY-AMC hydrolysis).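 Note: IC50 obtained by fitting initial reaction velocities to a dose-dependent inhibition model, with SDS present as proteasome activator.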 The test is classed as biochemical. To be noted: 0.2 nM c-20S, 25 μM suc-LLVY-AMC.
The target of the next test is β5i of hu i-20S (Homo sapiens (Human), UniProt P20618+P28062). In words: IC50 determination against β5i of human immunoproteasome (Ac-ANW-AMC hydrolysis).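 For all read-outs here: enzyme activity taken as the initial reaction velocity per well, with SDS added to activate the proteasome.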 The test is classed as biochemical. Conditions: for IC50: β5i, 0.4 nM i-20S, 15 μM Ac-ANW-AMC.

On to `O=C1CCc2cccc(c2)Oc2ccc(cc2)C[C@@H](C(=O)NCc2ccccc2F)NC(=O)[C@H](CC(=O)N2CCC[C@@H]2c2ccccc2)N1` [Compound 2-02-B, (5S,8S)—N-(2-Fluorobenzyl)-7,10-dioxo-8-(2-oxo-2-((R)-2-phenylpyrrolidin-1-yl)ethyl)-2-oxa-6,9-diaza-1(1,3),3(1,4)-dibenzenacyclododecaphane-5-carboxamide], for which the results for the IC50 on β5c of hu c-20S and on β5i of hu i-20S were over 100 µM and 6.75 µM, respectively.
On the same counts, the results for `O=C1CCc2cccc(c2)OCCCC[C@@H](C(=O)NCc2ccccc2F)NC(=O)[C@H](CCN2CCOCC2)N1` [Compound 3-26] are 3.4 µM and 3.5 µM.
On the same counts, the results for `O=C1CCCCCCCCC[C@@H](C(=O)NCc2cccc3ccccc23)NC(=O)[C@H](CC(=O)N2CCCC2)N1` [Compound 4-07] are over 100 µM and 61.3 µM.
On the same counts, the results for `CN(Cc1ccccc1)C(=O)[C@@H]1CCCCOc2cccc(c2)C[C@H](N2CCCC2=O)C(=O)N[C@@H](CCc2ccc(F)cc2)C(=O)N1` [Compound 3-44] are 5.15 µM and over 100 µM.
As for `O=C1CCc2cccc(c2)OCCCC[C@@H](C(=O)NCc2ccccc2F)NC(=O)[C@H](CC(=O)N2CCCC2C2CC2)N1` (single isomer, unassigned) [Compound 3-46-B], the IC50 (as a rule, the concentration at which inhibition is half-maximal) against β5c of hu c-20S came to 1.35 µM; on β5i of hu i-20S, 0.312 µM.
Regarding `O=C1CCCCCCCCCC[C@@H](C(=O)NCc2ccccc2F)NC(=O)[C@H](CC(=O)N2CCCC2C2COC2)N1` (stereo partly shown) [Compound 4-17], the IC50 on β5c of hu c-20S worked out at 0.88 µM; on β5i of hu i-20S, 0.11 µM.
On the same counts, the results for `O=C1CCc2cccc(c2)OCCCC[C@@H](C(=O)NC2CCCC2)NC(=O)[C@H](CC(=O)N2CCCC2C2CC2)N1` (single isomer, unassigned) [Compound 3-45-B] are 3.6 µM and over 100 µM.
Take `Cc1ccc(CNC(=O)[C@@H]2Cc3cccc(c3)Oc3cccc(c3)C[C@H](NC(=O)OC(C)(C)C)C(=O)N[C@@H](CCc3ccccc3)C(=O)N2)cc1` [Compound 1-68, tert-Butyl-((5S,8S,11S)-5-((4-methylbenzyl)carbamoyl)-7,10-dioxo-8-phenethyl-2-oxa-6,9-diaza-1,3(1,3)-dibenzenacyclododecaphane-11-yl)carbamate]: the IC50 at β5c of hu c-20S is 17.9 µM; at β5i of hu i-20S, over 100 µM.
On the same counts, the results for `CC(C)(C)OC(=O)N[C@H]1Cc2cccc(c2)Oc2cccc(c2)C[C@@H](C(=O)OCc2ccccc2)NC(=O)[C@H](CCc2ccccc2)NC1=O` [Compound 1-50, Benzyl-(S,8S,11S)-11-((tert-butoxycarbonyl)amino)-7,10-dioxo-8-phenethyl-2-oxa-6,9-diaza-1,3(1,3)-dibenzenacyclododecaphane-5-carboxylate] are over 100 µM and over 100 µM.
On the same counts, the results for `O=C1CCCCCCCCCC[C@@H](C(=O)NCc2cccc3ccccc23)NC(=O)[C@H](CC(=O)N2CCCC2)N1` [Compound 4-06, (2S,5S)—N-(1-Naphthylmethyl)-3,16-dioxo-2-(2-oxo-2-pyrrolidin-1-yl-ethyl)-1,4-diazacyclohexadecane-5-carboxamide] are over 100 µM and 3.52 µM.
On the same counts, the results for `O=C1CCCCCCCCOC[C@@H](C(=O)NCc2cccc3ccccc23)NC(=O)[C@H](CC(=O)N2CCCC2)N1` [Compound 4-15, (3S,6S)—N-(Naphthalen-1-ylmethyl)-5,8-dioxo-6-(2-oxo-2-(pyrrolidin-1-yl)ethyl)-1-oxa-4,7-diazacyclohexadecane-3-carboxamide] are 3.67 µM and 4.71 µM.
In the case of `O=C(NCc1ncco1)[C@@H]1CCCCOc2cccc(c2)C[C@H](N2CCCC2=O)C(=O)N[C@@H](CCc2ccccc2)C(=O)N1` [Compound 3-16], the IC50 amounted to 31.9 µM on β5c of hu c-20S and 82 µM against β5i of hu i-20S.
On the same counts, the results for `Cn1cc(CNC(=O)[C@@H]2Cc3cccc(c3)Oc3cccc(c3)C[C@H](NC(=O)CO)C(=O)N[C@@H](CCc3ccccc3)C(=O)N2)cn1` [Compound 1-05] are over 100 µM and 14.8 µM.
Turning to `COC1(CNC(=O)[C@@H]2Cc3cccc(c3)Oc3cccc(c3)CCC(=O)N[C@@H](CCN3CCOCC3)C(=O)N2)CC1` [Compound 1-90], the results for the IC50 on β5c of hu c-20S and on β5i of hu i-20S were 68.1 µM and over 100 µM, respectively.
On the same counts, the results for `C[C@@H]1Cc2cccc(c2)OCCCC[C@@H](C(=O)NC2CCCC2)NC(=O)[C@H](CCN2CCOCC2)NC1=O` (single isomer, unassigned) [Compound 3-38] are 21.5 µM and over 100 µM.
On the same counts, the results for `O=C1CCc2cccc(c2)Oc2ccc(cc2)C[C@@H](C(=O)NCc2ccccc2F)NC(=O)[C@H](CC(=O)N2CCCC2)N1` [Compound 2-01-B, (5S,8S)—N-(2-Fluorobenzyl)-7,10-dioxo-8-(2-oxo-2-(pyrrolidin-1-yl)ethyl)-2-oxa-6,9-diaza-1(1,3),3(1,4)-dibenzenacyclododecaphane-5-carboxamide] are 75.4 µM and 0.845 µM.
On the same counts, the results for `O=C1CCc2cccc(c2)OCCCC[C@@H](C(=O)NCc2ccccc2F)NC(=O)[C@H](CCc2ccc(F)cc2)N1` [Compound 3-41] are 56 µM and over 100 µM.
At β5i of hu i-20S, `O=C1CCc2cccc(c2)Oc2cccc(c2)C[C@@H](C(=O)NC2CCCC2)NC(=O)[C@H](CCN2CCOCC2)N1` [Compound 1-89, (5S,8S)—N-Cyclopentyl-8-(2-morpholinoethyl)-7,10-dioxo-2-oxa-6,9-diaza-1,3(1,3)-dibenzenacyclododecaphane-5-carboxamide] had an IC50 of over 100 µM.
Consider `O=C(NCc1ccccc1)[C@@H]1Cc2cccc(c2)Oc2cccc(c2)C[C@H](N2CCCC2)C(=O)N[C@@H](CCc2ccccc2)C(=O)N1` [Compound 1-17], for which the IC50 came out at 42.5 µM against β5c of hu c-20S and 6.6 µM against β5i of hu i-20S.
At β5i of hu i-20S, `O=C1N[C@H](CO)CCCCOc2cccc(c2)C[C@H](N2CCCC2=O)C(=O)N[C@H]1CCc1ccccc1` [Compound 3-06, (7S,10S,13S)-7-(Hydroxymethyl)-13-(2-oxopyrrolidin-1-yl)-10-phenethyl-2-oxa-8,11-diaza-1(1,3)-benzenacyclotetradecaphane-9,12-dione] gave an IC50 of 68 µM.
`CC(C)(C)NC(=O)[C@@H]1Cc2cccc(c2)Oc2cccc(c2)C[C@H](NS(C)(=O)=O)C(=O)N[C@@H](CCc2ccccc2)C(=O)N1` [Compound 1-37]: the IC50 against β5c of hu c-20S was 3.6 µM; against β5i of hu i-20S, over 100 µM.
Consider `COC(=O)C1COCCOc2cccc(c2)CCC(=O)NC(CCc2ccccc2)C(=O)N1` [Compound 3-05, Methyl-(7S,10S)-9,12-dioxo-10-phenethyl-2,5-dioxa-8,11-diaza-1(1,3)-benzenacyclotetradecaphane-7-carboxylate], for which the IC50 at β5c of hu c-20S is 23.1 µM; against β5i of hu i-20S, over 10 µM.
On the same counts, the results for `C[C@H]1Cc2cccc(c2)OCCCC[C@@H](C(=O)NC2CCCC2)NC(=O)[C@H](CCN2CCOCC2)NC1=O` (single isomer, unassigned) [Compound 3-37] are 56.7 µM and over 100 µM.
As for `CN1CCN(C(=O)[C@@H]2Cc3cccc(c3)Oc3cccc(c3)C[C@H](NC(=O)c3ccccn3)C(=O)N[C@@H](CCc3ccccc3)C(=O)N2)CC1` [Compound 1-52], the IC50 against β5c of hu c-20S amounted to 30.7 µM; at β5i of hu i-20S it was 33.9 µM.
On the same counts, the results for `CN1C(=O)[C@@H](N2CCCC2=O)Cc2cccc(c2)Oc2cccc(c2)C[C@@H](C(=O)NCC(F)(F)F)NC(=O)[C@@H]1CCc1ccccc1` [Compound 1-64] are over 100 µM and 2.72 µM.
The compound `O=C1N[C@@H](CC(=O)N2CCCC2)C(=O)N[C@H](C(=O)NCc2cccc3ccccc23)CCCCCCCCCC1Cc1ccccc1` (stereo in doubt) [Compound 4-04, (2S,5S,15S)-15-Benzyl-N-(naphthalen-1-ylmethyl)-3,16-dioxo-2-(2-oxo-2-(pyrrolidin-1-yl)ethyl)-1,4-diazacyclohexadecane-5-carboxamide] had an IC50 on β5i of hu i-20S of 61.3 µM.
On to `O=C1CCc2cccc(c2)OCCCC[C@@H](C(=O)NC2CCCC2)NC(=O)[C@H](CCc2ccc(F)cc2)N1` [Compound 3-39, (7S,10S)—N-Cyclopentyl-10-(4-fluorophenethyl)-9,12-dioxo-2-oxa-8,11-diaza-1(1,3)-benzenacyclotetradecaphane-7-carboxamide], for which the figures for the IC50 against β5c of hu c-20S and against β5i of hu i-20S were 38.6 µM and over 100 µM, respectively.
In turn, `CN1C(=O)[C@H](CCN2CCOCC2)NC(=O)[C@@H](N2CCCC2=O)Cc2cccc(c2)Oc2cccc(c2)C[C@H]1C(=O)NCC(F)(F)F` [Compound 1-86, (5S,8S,11S)-6-Methyl-8-(2-morpholinoethyl)-7,10-dioxo-11-(2-oxopyrrolidin-1-yl)-N-(2,2,2-trifluoroethyl)-2-oxa-6,9-diaza-1,3(1,3)-dibenzenacyclododecaphane-5-carboxamide] had an IC50 against β5i of hu i-20S of 61 µM.
As for `O=C(NC1CCCC1)[C@@H]1Cc2cccc(c2)Oc2cccc(c2)C[C@H](N2CCCS2(=O)=O)C(=O)N[C@@H](CCN2CCOCC2)C(=O)N1` [Compound 1-88, (5S,8S,11S)—N-Cyclopentyl-11-(1,1-dioxidoisothiazolidin-2-yl)-8-(2-morpholinoethyl)-7,10-dioxo-2-oxa-6,9-diaza-1,3(1,3)-dibenzenacyclododecaphane-5-carboxamide], on β5i of hu i-20S (compound at […]), the “% @ […], hu i-20S” value worked out at 15% @ 33.3 μM.
For `O=C(N[C@H]1Cc2cccc(c2)Oc2cccc(c2)C[C@@H](C(=O)NC2CCCC2)NC(=O)[C@H](CCc2ccccc2)NC1=O)c1ccccc1` [Compound 1-23], the IC50 against β5c of hu c-20S stood at 6.21 µM.
`O=C1CCc2cccc(c2)OCCCC[C@@H](C(=O)NC2CCCC2)NC(=O)[C@H](CCN2CCOCC2)N1` [Compound 3-25, (6S,9S)—N-Cyclopentyl-9-(2-morpholinoethyl)-8,11-dioxo-2-oxa-7,10-diaza-1(1,3)-benzenacyclotridecaphane-6-carboxamide] returned an IC50 on β5c of hu c-20S of 24.1 µM.
